In article PMC6479711, “Chemical Constituents of Anacardium occidentale as Inhibitors of Trypanosoma cruzi Sirtuins” (Molecules, 2019):
Read-outs that look alike come from different tables or passages of the source.

Experiments:
[1] = system: Trypomastigote forms of T. cruzi (Y strain); test: Activity against trypomastigotes (viable parasite count); type: cell-based, Trypanosoma cruzi; conditions: for EC50: read-out: Trypomastigote EC50 ± SEM
Experimental: All experiments were performed with the Y strain of T. cruzi. Trypomastigote forms of T. cruzi were obtained from the supernatant of infected LLC-MK2 cells and maintained in DMEM supplemented with 10% FBS and Penicillin-Streptomycin (100 U/mL) (all from Gibco/Life Technologies) at 37 °C with 5% CO2.
Trypomastigotes were incubated in 96-well plates (2 × 10^6 cells/mL) in DMEM, in the presence or absence of the compounds at different concentrations for 24 h. […] Each compound concentration was tested in triplicate, and three independent experiments were performed. The reference drug, benznidazole, was used as the positive control.

[2] = system: intracellular amastigotes of T. cruzi in infected hFIB; test: In vitro T. cruzi infection assay (intracellular amastigotes in hFIB, high content imaging); type: cell-based, Trypanosoma cruzi; conditions: read-out: Amastigote EC50 ± SEM
Experimental: All experiments were performed with the Y strain of T. cruzi. […] The culture was washed with saline solution and infected with trypomastigotes (10 parasites:1 host cell). Following 24 h of incubation, the non-internalized parasites were removed by washing with saline solution, and fresh medium, with or without compounds at different concentrations, was added to the culture before the incubations proceeded for 72 h. Cells were then fixed and stained by the addition of 50 μL of a solution containing 4% paraformaldehyde and 4 μM Draq5 DNA dye (BioStatus, Shepshed, UK) per well. Plates were imaged in an Operetta High Content Imaging System (PerkinElmer, Waltham, MA, USA) confocal microscope using a 10X air objective. Nine images were collected from each well for reliable statistical analysis. The percentage of intracellular parasites was determined and compared to the negative control, and compound antiparasitic activity was also expressed as EC50. The reference drug, benznidazole, was used as the positive control at 50 µM. Each drug concentration was carried out in triplicate.

[3] = Host cell toxicity (AlamarBlue); type: cell-based, human; conditions: human, hFIB viability 72 h after treatment, read-out: hFIB CC50 ± SEM
Experimental: (§1) Human primary skin fibroblasts (hFIB) were obtained from patient skin biopsy and cultured in Dulbecco’s Modified Eagle Medium (DMEM) supplemented with 10% fetal bovine serum (FBS) and Penicillin-Streptomycin (0.2 U/mL) (all from Gibco/Life Technologies, Grand Island, NY, USA). The cells were seeded on 96-well plates at 3 × 10^4 cells/mL and treated with the drugs for 72 h of incubation time. Following the treatments, cells were washed with saline solution twice, and cell viability was determined by the AlamarBlue assay (Thermo Fisher Scientific, Carlsbad, CA, USA), according to the manufacturer’s instructions. Colorimetric readings were performed after 24 h at 570 and 600 nm. Fifty-percent cytotoxic concentration (CC50) values were calculated using data points gathered from three independent experiments.

[4] = system: Human primary skin fibroblasts (hFIB); test: Host cell toxicity (AlamarBlue); type: cell-based; conditions: for hFIB CC50 ± SEM: hFIB viability 72 h after treatment
Experimental: as §1

[5] = system: amastigote forms of T. cruzi in infected hFIB; test: In vitro drug combination of compound 2 and benznidazole in infected hFIB (Chou-Talalay CI); type: cell-based; conditions: Trypanosoma cruzi, 72 h, read-out: EC50 ± SD, alone
Experimental: The culture was washed with saline solution and infected with trypomastigotes (10 parasites:1 host cell). Following 24 h of incubation, the non-internalized parasites were removed by washing with saline solution, and fresh medium, with or without compounds at different concentrations, was added to the culture before the incubations proceeded for 72 h. Cells were then fixed and stained by the addition of 50 μL of a solution containing 4% paraformaldehyde and 4 μM Draq5 DNA dye (BioStatus, Shepshed, UK) per well. Plates were imaged in an Operetta High Content Imaging System (PerkinElmer, Waltham, MA, USA) confocal microscope using a 10X air objective. Nine images were collected from each well for reliable statistical analysis. The percentage of intracellular parasites was determined and compared to the negative control, and compound antiparasitic activity was also expressed as EC50. The reference drug, benznidazole, was used as the positive control at 50 µM. Each drug concentration was carried out in triplicate.

TcSir2rp1 = TcSir2rp1 (Trypanosoma cruzi, UniProt Q4DVL9); test: TcSir2rp1 deacetylase activity assay (fluorogenic peptide, NAD+); type: biochemical; conditions: recombinant enzyme; 30 min pre-incubation; sirtuin activity determined 4 h after incubation; read-out: TcSir2rp1 EC50 ± SEM
TcSir2rp1, sequence (Q4DVL9 entry or part of it): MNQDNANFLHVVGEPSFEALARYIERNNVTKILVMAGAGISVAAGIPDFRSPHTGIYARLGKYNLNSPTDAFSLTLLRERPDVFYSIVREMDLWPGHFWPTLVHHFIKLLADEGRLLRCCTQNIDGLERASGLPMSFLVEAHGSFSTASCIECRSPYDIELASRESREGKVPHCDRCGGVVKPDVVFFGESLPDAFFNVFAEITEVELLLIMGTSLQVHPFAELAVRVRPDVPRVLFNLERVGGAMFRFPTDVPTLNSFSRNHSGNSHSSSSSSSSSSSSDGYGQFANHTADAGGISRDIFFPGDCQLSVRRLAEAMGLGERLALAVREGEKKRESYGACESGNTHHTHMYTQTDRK
Experimental: Deacetylase assays were performed from the protocol established previously by [8]. In summary, the reaction was performed in two steps. In the first step, a synthetic peptide as the substrate (Abz-Gly-Pro-acetyl-Lys-Ser-Gln-EDDnp, where Abz is ortho-aminobenzoic acid and EDDnp is N-[2,4-dinitrophenyl]ethylenediamine) was dissolved in 50 µL of 25 mM Tris-HCl (pH 8.0), 137 mM NaCl, 2.7 mM KCl, and 1 mM MgCl2 containing 0.6 mM NAD^+ (Sigma-Aldrich). TcSir2rp1 or TcSir2rp3 were added and the reactions performed for 4 h at 30 °C. In the inhibition experiments, the enzyme was pre-treated for 30 min at room temperature with the indicated compounds and the addition of the substrate started the reaction. In the second step, the reactions were stopped with 50 µL of a solution containing 12 mM nicotinamide in 100 mM NaCl and 50 mM Tris-HCl (pH 8.0), in the absence or presence of 0.6 mg/mL trypsin (Sigma-Aldrich). After further incubation for 15 min, the fluorescence at 420 nm was read (excitation, 320 nm) in a SpectraMax M3 plate reader (Molecular Devices, Sunnyvale, CA, USA).

TcSir2rp3 = TcSir2rp3 (Trypanosoma cruzi, UniProt Q4E5B9, K2R); test: TcSir2rp3 deacetylase activity assay (fluorogenic peptide, NAD+); type: biochemical
TcSir2rp3, sequence (Q4E5B9 whole entry K2R): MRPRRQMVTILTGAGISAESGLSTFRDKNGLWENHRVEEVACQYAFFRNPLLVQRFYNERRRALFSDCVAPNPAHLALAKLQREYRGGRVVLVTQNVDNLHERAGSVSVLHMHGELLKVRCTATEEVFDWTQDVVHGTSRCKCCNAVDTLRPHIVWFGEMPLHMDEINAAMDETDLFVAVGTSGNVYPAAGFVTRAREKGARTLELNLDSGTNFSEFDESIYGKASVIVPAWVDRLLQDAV
Experimental: Recombinant TcSir2rp3 was obtained as described previously by. The TcSir2rp3 gene was amplified from the genomic DNA of the T. cruzi Y strain using the oligonucleotides TcSir2rp3_BamHI_F_5′-[…] AGG-3′ and TcSir2rp3_XhoI_R_5′-[…]-3′ and cloned into pET28a (Novagen, Itapira, Brazil). The recombinant vector was used to transform ArcticExpress DE3 bacteria (Agilent Technologies) and protein was expressed by induction with 0.1 mM IPTG at 12 °C.
Deacetylase assays were performed from the protocol established previously by. In summary, the reaction was performed in two steps. In the first step, a synthetic peptide as the substrate (Abz-Gly-Pro-acetyl-Lys-Ser-Gln-EDDnp, where Abz is ortho-aminobenzoic acid and EDDnp is N-[2,4-dinitrophenyl]ethylenediamine) was dissolved in 50 µL of 25 mM Tris-HCl (pH 8.0), 137 mM NaCl, 2.7 mM KCl, and 1 mM MgCl2 containing 0.6 mM NAD^+ (Sigma-Aldrich). TcSir2rp1 or TcSir2rp3 were added and the reactions performed for 4 h at 30 °C. In the inhibition experiments, the enzyme was pre-treated for 30 min at room temperature with the indicated compounds and the addition of the substrate started the reaction. […] After further incubation for 15 min, the fluorescence at 420 nm was read (excitation, 320 nm) in a SpectraMax M3 plate reader (Molecular Devices, Sunnyvale, CA, USA).

[6] = Trypanosoma cruzi, 72 h, infected hFIB, 72 h after treatment
[7] = human primary skin fibroblasts (hFIB)
[8] = Y strain, 24 h after incubation with compounds
[9] = infected hFIB, 72 h after treatment

Row | Compound | EC50 [2, 6] | SI (selectivity index), ratio of CC50 (hFIB) to EC50 (amastigote) [4] | CC50 at 72 h [3, 7] | EC50 (TcSir2rp1) | EC50 (TcSir2rp3) | Trypomastigote EC50 ± SEM [1, 8] | EC50 [2, 9] | hFIB CC50 ± SEM [4] | other results
1 | C=CC/C=C\C/C=C\CCCCCCCc1cc(O)cc(O)c1 [Compound 1, 5-(8Z,11Z)-8,11,14-Pentadecatrien-1-yl-1,3-benzenediol] | 11.8 ± 0.4 µM | 4 |  |  |  |  |  |  | EC50 ([1]; Trypanosoma cruzi, 24 h): 23.36 ± 0.12 µM; CC50 at 72 h [3]: 47.17 ± 0.1 µM
2 | O=C(Cn1ccnc1[N+](=O)[O-])NCc1ccccc1 [Benznidazole, reference compound] |  | >32 | > 100 µM |  |  |  |  |  | EC50 ([1]; Trypanosoma cruzi, Y strain, 24 h after incubation with compounds): 11.4 ± 1.09 µM; EC50 ([2]; Trypanosoma cruzi, 72 h): 3.13 ± 0.87 µM; EC50 [5]: 2.17 ± 0.09 µM
3 | CCC/C=C\C/C=C\CCCCCCCc1cccc(O)c1C(=O)O [Compound 5, 2-Hydroxy-6-(8Z,11Z)-8,11-pentadecadien-1-ylbenzoic acid] | ~40 µM |  | > 100 µM | 23.3 ± 2.51 µM | 6.08 ± 1.16 µM | no effect | 41.7 ± 5.53 µM | not toxic | 
4 | CCCCCC/C=C\CCCCCCCc1cccc(O)c1C(=O)O [Compound 6, 2-Hydroxy-6-(8Z)-8-pentadecenylbenzoic acid] | ~40 µM |  | > 100 µM | 16.2 ± 4.88 µM | 7.41 ± 0.65 µM | no effect | 42.4 ± 5.11 µM | not toxic | 
5 | 3-(8Z)-8-Pentadecen-1-ylphenol [Compound 4] |  |  |  |  |  |  | 15.3 ± 2 µM |  | EC50 [1, 8]: 43.5 ± 2.32 µM; CC50 [4]: 45.47 ± 0.27 µM
